# In US8258159B2, “Inhibitors of the α2β1/GPIa-IIa integrin” (The Trustees Of The University Of Pennsylvania, priority 2005, dated 2012):
# Target: T1, α2β1 (Homo sapiens, UniProt P05556+P17301)
# T1 construct: Marcinkiewicz (Temple University, Philadelphia, Pa.); host or cells: K562
# Assay: Cell adhesion assay to assess specificity: α2-transfected K562 cells on collagen I
# Type: cell-based
# Settings: not given
# Protocol: (§1) The ligands (3 μg/ml of collagen IV for […] or 3 μg/ml of collagen I for α2β1) for the test designed to assess the specificity of representative embodiments of the instant compounds for the α2β1 integrin were immobilized on 96-well flat microtiter plates (100 μl for each well) in PBS buffer solution overnight at 4° C. In the case of VCAM (3 μg/ml, for α4β1) and fibronectin (10 μg/ml, for α5β1), 20 mM acetic acid was used instead of PBS buffer solution. As those skilled in the art will recognize, VCAM is a known endothelial ligand for α4β1/VLA-4, and fibronectin is a known ligand for […]. In the case of α1β1 and α2β1, blocking was performed with 1% BSA in HBSS buffer solution containing Mg^2+ (but without Ca^2+) for 1 hour. In the case of α4β1 and α5β1, 1% BSA in HyQ HBSS buffer solution containing Ca^2+ and Mg^2+ was used. […] After centrifugation and washing with buffer solution containing 1% BSA, cells were re-suspended in same buffer solution (1×10^6 cells/ml) and incubated in the presence of a different concentration of inhibitors at room temperature for 15 minutes. Cells were added to the wells (100 μl/well) and incubated at 37° C. for 30 minutes. Unbound cells were washed out and bound cells were lysed by the addition of 0.5% Triton X-100.
# (§2) The K562 cells expressing α5β1 integrin, Jurkat cells expressing α4β1, and K562 cells transfected with α1 and α2 integrins were provided by Dr. C. Marcinkiewicz (Temple University, Philadelphia, Pa.).
# (§3) Plates were read using a Cytofluor 2350 fluorescence plate reader (Millipore, Bedford, Mass.) with a 485 nm (excitation) and 530 nm (emission).
# T1 sequence (P17301 30-1181): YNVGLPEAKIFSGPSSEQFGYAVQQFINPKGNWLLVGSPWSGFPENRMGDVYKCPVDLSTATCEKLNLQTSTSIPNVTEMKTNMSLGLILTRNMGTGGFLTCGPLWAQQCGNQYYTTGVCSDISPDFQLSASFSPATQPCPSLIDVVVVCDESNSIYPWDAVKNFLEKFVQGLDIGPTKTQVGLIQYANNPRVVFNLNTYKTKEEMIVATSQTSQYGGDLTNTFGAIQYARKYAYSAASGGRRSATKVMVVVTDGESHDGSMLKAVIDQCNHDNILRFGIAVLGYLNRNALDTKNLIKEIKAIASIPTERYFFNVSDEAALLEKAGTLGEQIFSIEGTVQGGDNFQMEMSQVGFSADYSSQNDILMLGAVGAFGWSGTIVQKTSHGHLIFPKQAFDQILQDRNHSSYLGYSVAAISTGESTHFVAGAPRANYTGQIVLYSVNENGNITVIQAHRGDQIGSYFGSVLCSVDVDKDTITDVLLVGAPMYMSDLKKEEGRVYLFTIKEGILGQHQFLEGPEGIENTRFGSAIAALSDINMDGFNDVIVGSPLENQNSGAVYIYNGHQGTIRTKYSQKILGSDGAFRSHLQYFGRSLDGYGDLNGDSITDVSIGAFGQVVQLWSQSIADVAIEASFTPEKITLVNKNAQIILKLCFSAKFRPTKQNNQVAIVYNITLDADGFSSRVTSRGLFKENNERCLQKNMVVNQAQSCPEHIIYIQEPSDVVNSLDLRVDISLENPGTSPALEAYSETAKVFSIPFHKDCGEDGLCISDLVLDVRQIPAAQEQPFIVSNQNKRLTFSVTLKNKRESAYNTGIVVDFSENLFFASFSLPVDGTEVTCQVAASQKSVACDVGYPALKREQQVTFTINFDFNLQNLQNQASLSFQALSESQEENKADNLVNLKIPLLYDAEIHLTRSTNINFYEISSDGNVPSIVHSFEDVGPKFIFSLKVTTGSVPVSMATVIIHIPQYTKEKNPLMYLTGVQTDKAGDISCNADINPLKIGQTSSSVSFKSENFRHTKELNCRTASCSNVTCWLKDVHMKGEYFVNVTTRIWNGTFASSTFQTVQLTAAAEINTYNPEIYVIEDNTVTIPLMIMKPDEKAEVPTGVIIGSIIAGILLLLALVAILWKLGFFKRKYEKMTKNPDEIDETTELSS
# T1 sequence (P05556 21-798): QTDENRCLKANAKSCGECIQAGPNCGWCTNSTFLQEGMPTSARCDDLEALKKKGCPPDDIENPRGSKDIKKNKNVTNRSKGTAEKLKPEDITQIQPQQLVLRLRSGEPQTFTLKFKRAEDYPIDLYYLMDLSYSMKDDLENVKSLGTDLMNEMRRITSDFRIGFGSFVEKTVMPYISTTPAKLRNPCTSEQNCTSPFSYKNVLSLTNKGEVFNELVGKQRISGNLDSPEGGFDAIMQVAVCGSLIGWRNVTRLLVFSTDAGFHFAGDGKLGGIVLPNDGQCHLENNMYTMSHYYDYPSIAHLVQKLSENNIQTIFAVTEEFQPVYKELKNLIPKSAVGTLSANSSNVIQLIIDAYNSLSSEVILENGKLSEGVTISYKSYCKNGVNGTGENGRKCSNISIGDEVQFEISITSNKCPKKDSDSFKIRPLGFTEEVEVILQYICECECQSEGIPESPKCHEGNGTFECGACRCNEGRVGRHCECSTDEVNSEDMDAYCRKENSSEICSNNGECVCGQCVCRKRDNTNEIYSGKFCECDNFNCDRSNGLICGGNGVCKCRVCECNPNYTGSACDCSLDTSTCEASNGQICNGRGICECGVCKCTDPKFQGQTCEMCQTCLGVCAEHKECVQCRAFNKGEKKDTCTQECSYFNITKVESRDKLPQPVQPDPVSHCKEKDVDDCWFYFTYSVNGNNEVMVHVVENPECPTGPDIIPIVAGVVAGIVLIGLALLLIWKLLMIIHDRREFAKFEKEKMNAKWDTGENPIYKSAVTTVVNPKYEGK
row,Structure (SMILES),IC50
1,"O=C(NCc1ccccc1)NC[C@H](NC(=O)[C@@H]1CCCN1S(=O)(=O)c1cc(Cl)cc(Cl)c1)C(=O)O [Compound 48, 3-(3-Benzyl-ureido)-2-{[1-(3,5-dichloro-benzenesulfonyl)-pyrrolidine-2-carbonyl]-amino}-propionic acid]",83 nM

# Target: T2, α4β1 (Homo sapiens, UniProt P05556+P13612)
# T2 construct: Jurkat cells expressing α4β1; Marcinkiewicz (Temple University, Philadelphia, Pa.); host or cells: Jurkat
# T2 sequence (P13612 34-1032): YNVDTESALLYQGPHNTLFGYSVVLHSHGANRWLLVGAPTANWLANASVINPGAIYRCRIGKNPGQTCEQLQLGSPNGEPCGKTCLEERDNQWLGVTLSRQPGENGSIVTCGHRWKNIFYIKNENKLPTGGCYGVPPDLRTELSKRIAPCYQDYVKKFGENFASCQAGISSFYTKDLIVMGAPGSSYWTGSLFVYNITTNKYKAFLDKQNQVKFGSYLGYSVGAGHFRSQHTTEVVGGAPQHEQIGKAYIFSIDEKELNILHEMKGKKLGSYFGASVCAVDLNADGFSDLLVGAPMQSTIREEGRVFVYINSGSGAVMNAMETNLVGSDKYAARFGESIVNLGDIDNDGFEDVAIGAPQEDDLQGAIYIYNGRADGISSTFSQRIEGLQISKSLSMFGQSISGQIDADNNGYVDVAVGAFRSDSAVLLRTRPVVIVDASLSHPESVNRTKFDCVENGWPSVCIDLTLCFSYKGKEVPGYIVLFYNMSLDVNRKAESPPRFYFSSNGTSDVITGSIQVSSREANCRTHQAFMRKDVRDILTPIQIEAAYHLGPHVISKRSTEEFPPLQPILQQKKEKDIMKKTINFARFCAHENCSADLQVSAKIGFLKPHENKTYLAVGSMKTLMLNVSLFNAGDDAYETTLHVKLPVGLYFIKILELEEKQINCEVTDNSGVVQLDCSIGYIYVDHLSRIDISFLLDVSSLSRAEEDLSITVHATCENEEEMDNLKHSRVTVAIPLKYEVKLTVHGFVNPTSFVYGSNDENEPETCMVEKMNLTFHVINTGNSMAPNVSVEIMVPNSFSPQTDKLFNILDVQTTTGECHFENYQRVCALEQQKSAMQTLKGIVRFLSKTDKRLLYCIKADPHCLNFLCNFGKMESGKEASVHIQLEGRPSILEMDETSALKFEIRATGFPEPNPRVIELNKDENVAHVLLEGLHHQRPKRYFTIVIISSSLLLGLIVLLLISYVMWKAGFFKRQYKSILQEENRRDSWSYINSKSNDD
# T2 sequence (P05556 21-798): as the sequence (P05556 21-798) above
# Assay: Cell adhesion assay to assess specificity: Jurkat cells on VCAM
# Type: cell-based
# Settings: not given
# Protocol: as §1, §2, §3
row,Structure (SMILES),IC50
1,"O=C(NCc1ccccc1)NC[C@H](NC(=O)[C@@H]1CCCN1S(=O)(=O)c1cc(Cl)cc(Cl)c1)C(=O)O [Compound 48, 3-(3-Benzyl-ureido)-2-{[1-(3,5-dichloro-benzenesulfonyl)-pyrrolidine-2-carbonyl]-amino}-propionic acid]",637 nM

# Target: T3, α2β1 integrin (Homo sapiens, UniProt P05556+P17301)
# T3 construct: endogenous in cells; host or cells: gel-filtered human platelets of a single donor
# T3 sequence (P17301 30-1181): as the sequence (P17301 30-1181) above
# T3 sequence (P05556 21-798): as the sequence (P05556 21-798) above
# Assay: Platelet adhesion assay (human platelet adhesion to type I collagen)
# Type: cell-based
# Settings: human platelet adhesion to type I (soluble, monomeric) collagen, static conditions; single donor; read-out: IC50
# Protocol: The inhibitory strength of the compounds of the present disclosure was analyzed as against platelet adhesion to type I collagen. Ninety-six well flat bottom microtiter plates (Immulon 2, Dynatech Laboratories, Chantilly, Va.) were coated with collagen, purified human fibrinogen, or bovine serum albumin, each dissolved in 50 mM NaHCO3 buffer, pH 8.0, containing 150 mM NaCl as previously described. See Bennett J S, Chan C, Vilaire G, Mousa S A, DeGrado W F. Agonist-Activated αvβ3 on Platelets and Lymphocytes Binds to the Matrix Protein Osteopontin. J Biol Chem. 272, 8137-814) (1997). Unoccupied protein binding sites on the wells were blocked with 5 mg/ml bovine serum albumin dissolved in the same buffer. Human platelets were isolated from blood anticoagulated with 0.1 volume 3.8% sodium citrate by gel-filtration using a 4 mM HEPES buffer, pH 7.4, containing 135 mM NaCl, 2.7 mM KCl, 5.6 mM glucose, 3.3 mM NaH2PO4, 0.35 mg/ml bovine serum albumin and various concentrations of CaCl2 or MgCl2 according to the experiment. One hundred μl aliquots of the gel-filtered platelet suspension containing 1-2×10^8 platelets were added to the protein-coated wells in the absence or presence of a platelet agonist. Following an incubation for 30 min at 37° C. without agitation, the plates were washed 4 times with the Tris-buffered NaCl, containing 2 mM MgCl2, pH 7.4, and the number of adherent platelets measured using the colorimetric assay reported by Bellavite P, Andrioli G, Guzzo P, et al. A colorimetric method for the measurement of platelet adhesion in microtiter plates. Anal Biochem. 216, 444-450 (1994). Briefly, 150 μl of a 0.1 M citrate buffer, pH 5.4, containing 5 mM p-nitrophenyl phosphate and 0.1% Triton X-100 was added to the wells after washing. After an incubation for 60 min at room temperature in the absence of ambient light, color was developed by the addition of 100 μl of 2N NaOH and, using EL800 Universal Microplate Reader (Bio-Tek Instruments, Inc., Winooski, Vt.), read in microtiter plate reader at 405 nm.
# The potencies of the compounds of the present disclosure were determined by testing the ability of a range of concentrations of each compound to inhibit human platelet adhesion to soluble collagen under static conditions. Owing to the fact that soluble collagen is a specific ligand for α2β1 integrin, this is an accepted method of assessing α2β1 inhibition on platelets.
# IC50 values were determined by using the platelets of a single donor. In cases where multiple assays were performed, the reported results reflect the average IC50 value derived from the separate assays.
row,Structure (SMILES),IC50
1,"O=C(NCc1ccccc1)NC[C@H](NC(=O)[C@@H]1CCCN1S(=O)(=O)c1cc(Cl)cc(Cl)c1)C(=O)O [Compound 48, 3-(3-Benzyl-ureido)-2-{[1-(3,5-dichloro-benzenesulfonyl)-pyrrolidine-2-carbonyl]-amino}-propionic acid]",17 nM
2,"COc1ccccc1CNC(=O)NC[C@H](NC(=O)[C@@H]1CCCN1S(=O)(=O)c1ccccc1)C(=O)O [Compound 40, 2-[(1-Benzenesulfonyl-pyrrolidine-2-carbonyl)-amino]-3-[3-(2-methoxy-benzyl)-ureido]-propionic acid]",467 nM
3,"O=C(NC[C@H](NC(=O)[C@@H]1CCCN1S(=O)(=O)c1ccc([N+](=O)[O-])cc1)C(=O)O)Nc1ccccc1 [Compound 9, 2-{[1-(4-Nitro-benzenesulfonyl)-pyrrolidine-2-carbonyl]-amino}-3-(3-phenyl-ureido)-propionic acid]",3000 nM
4,"Nc1ccc(S(=O)(=O)N2CCC[C@H]2C(=O)N[C@H](CNC(=O)NCc2ccccc2)C(=O)O)cc1 [Compound 25, 2-{[1-(4-Amino-benzenesulfonyl)-pyrrolidine-2-carbonyl]-amino}-3-(3-benzyl-ureido)-propionic acid]",2030 nM
5,"CC(C)(C)OC(=O)NC[C@H](NC(=O)[C@@H]1CCCN1S(=O)(=O)c1ccc([N+](=O)[O-])cc1)C(=O)O [Compound 1, 3-tert-Butoxycarbonylamino-2-{[1-(4-nitro-benzenesulfonyl)-pyrrolidine-2-carbonyl]-amino}-propionic acid]",2620 nM
6,"CCCNC(=O)NC[C@H](NC(=O)[C@@H]1CCCN1S(=O)(=O)c1ccc([N+](=O)[O-])cc1)C(=O)O [Compound 16, 2-{[1-(4-Nitro-benzenesulfonyl)-pyrrolidine-2-carbonyl]-amino}-3-(3-propyl-ureido)-propionic acid]",3600 nM
7,"CC(C)(C)OC(=O)Nc1ccc(CNC(=O)NC[C@H](NC(=O)[C@@H]2CCCN2S(=O)(=O)c2ccc([N+](=O)[O-])cc2)C(=O)O)cc1 [Compound 18, 3-[3-(4-tert-Butoxycarbonylamino-benzyl)-ureido]-2-{[1-(4-nitro-benzenesulfonyl)-pyrrolidine-2-carbonyl]-amino}-propionic acid]",1770 nM
8,"O=C(CCc1ccccc1)NC[C@H](NC(=O)[C@@H]1CCCN1S(=O)(=O)c1ccccc1)C(=O)O [Compound 37, 2-[(1-Benzenesulfonyl-pyrrolidine-2-carbonyl)-amino]-3-(3-phenyl-propionylamino)-propionic acid]",367 nM
9,"CC(C)(C)NC(=O)NC[C@H](NC(=O)[C@@H]1CCCN1S(=O)(=O)c1ccccc1)C(=O)O [Compound 45, 2-[(1-Benzenesulfonyl-pyrrolidine-2-carbonyl)-amino]-3-(3-tert-butyl-ureido)-propionic acid]",185 nM
10,"O=C(NCc1ccccc1)NC[C@H](NC(=O)[C@@H]1C[C@@H](OCc2ccccc2)CN1S(=O)(=O)c1ccccc1)C(=O)O [Compound 46, 2-[(1-Benzenesulfonyl-4-benzyloxy-pyrrolidine-2-carbonyl)-amino]-3-(3-benzyl-ureido)-propionic acid]",240 nM
11,"O=C(NC[C@H](NC(=O)[C@@H]1CCCN1S(=O)(=O)c1ccc([N+](=O)[O-])cc1)C(=O)O)OCc1ccccc1 [Compound 2, 3-Benzyloxycarbonylamino-2-{[1-(4-nitro-benzenesulfonyl)-pyrrolidine-2-carbonyl]-amino}-propionic acid]",2300 nM
12,"O=C(NCc1ccccc1)NC[C@H](NC(=O)[C@@H]1CCCN1S(=O)(=O)c1ccc(NC(=O)Nc2ccccc2)cc1)C(=O)O [Compound 33, 3-(3-Benzyl-ureido)-2-({1-[4-(3-phenyl-ureido)-benzenesulfonyl]-pyrrolidine-2-carbonyl}-amino)-propionic acid]",151 nM
13,O=C(NCc1ccccc1)NC[C@H](NC(=O)[C@@H]1CCCN1S(=O)(=O)c1cccc2ccccc12)C(=O)O [Compound 28],1940 nM
14,"O=C(NCc1ccccc1Cl)NC[C@H](NC(=O)[C@@H]1CCCN1S(=O)(=O)c1ccc([N+](=O)[O-])cc1)C(=O)O [Compound 7, 3-[3-(2-Chloro-benzyl)-ureido]-2-{[1-(4-nitro-benzenesulfonyl)-pyrrolidine-2-carbonyl]-amino}-propionic acid]",985 nM
15,"O=C(CCc1ccccc1)NC[C@H](NC(=O)[C@@H]1CCCN1S(=O)(=O)c1ccc([N+](=O)[O-])cc1)C(=O)O [Compound 4, 2-{[1-(4-Nitro-benzenesulfonyl)-pyrrolidine-2-carbonyl]-amino}-3-(3-phenyl-propionylamino)-propionic acid]",4750 nM
16,"O=C(NCc1ccc(-c2ccccc2)cc1)NC[C@H](NC(=O)[C@@H]1CCCN1S(=O)(=O)c1ccc([N+](=O)[O-])cc1)C(=O)O [Compound 15, 3-(3-Biphenyl-4-ylmethyl-ureido)-2-{[1-(4-nitro-benzenesulfonyl)-pyrrolidine-2-carbonyl]-amino}-propionic acid]",4100 nM
17,"O=C(NCc1ccccc1)NC[C@H](NC(=O)[C@@H]1CCCN1S(=O)(=O)c1cc(F)cc(F)c1)C(=O)O [Compound 43, 3-(3-Benzyl-ureido)-2-{[1-(3,5-difluoro-benzenesulfonyl)-pyrrolidine-2-carbonyl]-amino}-propionic acid]",35 nM
18,"CC(C)(C)NC(=O)NC[C@H](NC(=O)[C@@H]1CCCN1S(=O)(=O)c1ccc([N+](=O)[O-])cc1)C(=O)O [Compound 17, 3-(3-tert-Butyl-ureido)-2-{[1-(4-nitro-benzenesulfonyl)-pyrrolidine-2-carbonyl]-amino}-propionic acid]",1700 nM
19,"O=C(NC[C@H](NC(=O)[C@@H]1CCCN1S(=O)(=O)c1ccc([N+](=O)[O-])cc1)C(=O)O)c1ccccc1 [Compound 3, 3-Benzoylamino-2-{[1-(4-nitro-benzenesulfonyl)-pyrrolidine-2-carbony]-amino}-propionic acid]",2310 nM
20,"O=C(NCc1ccccc1)NC[C@H](NC(=O)[C@@H]1CCCN1S(=O)(=O)c1ccc2ccccc2c1)C(=O)O [Compound 34, 3-(3-Benzyl-ureido)-2-{[1-(naphthalene-2-sulfonyl)-pyrrolidine-2-carbonyl]-amino}-propionic acid]",50 nM
21,"CCCNC(=O)NC[C@H](NC(=O)[C@@H]1CCCN1S(=O)(=O)c1ccccc1)C(=O)O [Compound 42, 2-[(1-Benzenesulfonyl-pyrrolidine-2-carbonyl)-amino]-3-{3-propyl-ureido)-propionic acid]",367 nM

# Same assay, conditions: platelets on collagen I; read-out: IC50 (nM), α2β1, Platelet, Collagen I
row,Structure (SMILES),IC50
1,"O=C(NCc1ccccc1)NC[C@H](NC(=O)[C@@H]1CCCN1S(=O)(=O)c1cc(Cl)cc(Cl)c1)C(=O)O [Compound 48, 3-(3-Benzyl-ureido)-2-{[1-(3,5-dichloro-benzenesulfonyl)-pyrrolidine-2-carbonyl]-amino}-propionic acid]",17 nM

# Target: T4, α1β1 (Homo sapiens, UniProt P05556+P56199)
# T4 construct: Marcinkiewicz (Temple University, Philadelphia, Pa.); host or cells: K562
# T4 sequence (P56199 29-1179): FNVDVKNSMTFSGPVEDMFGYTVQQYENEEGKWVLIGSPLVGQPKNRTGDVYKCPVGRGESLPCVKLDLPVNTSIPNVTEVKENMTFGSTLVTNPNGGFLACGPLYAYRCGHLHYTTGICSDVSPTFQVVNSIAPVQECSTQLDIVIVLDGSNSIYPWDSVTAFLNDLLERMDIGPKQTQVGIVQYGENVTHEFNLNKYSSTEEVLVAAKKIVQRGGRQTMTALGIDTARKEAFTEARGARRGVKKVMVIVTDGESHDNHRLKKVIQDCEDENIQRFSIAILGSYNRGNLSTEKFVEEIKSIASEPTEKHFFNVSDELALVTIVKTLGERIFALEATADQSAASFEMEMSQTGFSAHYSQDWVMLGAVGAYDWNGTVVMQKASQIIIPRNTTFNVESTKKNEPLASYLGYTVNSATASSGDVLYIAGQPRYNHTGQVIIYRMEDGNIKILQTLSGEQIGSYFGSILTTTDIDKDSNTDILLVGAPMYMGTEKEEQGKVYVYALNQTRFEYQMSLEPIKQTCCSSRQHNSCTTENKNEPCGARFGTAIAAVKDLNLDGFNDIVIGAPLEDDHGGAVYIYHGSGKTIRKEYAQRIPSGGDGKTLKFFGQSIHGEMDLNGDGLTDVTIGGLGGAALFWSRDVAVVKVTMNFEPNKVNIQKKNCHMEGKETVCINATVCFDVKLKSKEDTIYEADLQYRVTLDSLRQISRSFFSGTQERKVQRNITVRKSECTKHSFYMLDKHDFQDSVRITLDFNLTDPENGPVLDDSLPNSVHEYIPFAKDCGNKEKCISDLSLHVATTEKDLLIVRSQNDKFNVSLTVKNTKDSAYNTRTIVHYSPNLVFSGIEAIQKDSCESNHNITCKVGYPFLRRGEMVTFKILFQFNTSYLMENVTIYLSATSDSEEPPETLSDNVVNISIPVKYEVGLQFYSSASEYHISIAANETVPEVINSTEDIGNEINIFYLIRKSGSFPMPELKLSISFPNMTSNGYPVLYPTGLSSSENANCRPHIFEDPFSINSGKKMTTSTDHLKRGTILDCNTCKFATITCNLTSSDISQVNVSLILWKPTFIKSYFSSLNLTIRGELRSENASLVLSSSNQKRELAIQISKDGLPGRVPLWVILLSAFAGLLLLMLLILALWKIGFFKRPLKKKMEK
# T4 sequence (P05556 21-798): as the sequence (P05556 21-798) above
# Assay: Cell adhesion assay to assess specificity: α1-transfected K562 cells on collagen IV
# Type: cell-based
# Settings: read-out: % inhibition at 3 μM, α1β1
# Protocol: as §1, §2, §3
row,Structure (SMILES),inhibition at 3 µM
1,"O=C(NCc1ccccc1)NC[C@H](NC(=O)[C@@H]1CCCN1S(=O)(=O)c1cc(Cl)cc(Cl)c1)C(=O)O [Compound 48, 3-(3-Benzyl-ureido)-2-{[1-(3,5-dichloro-benzenesulfonyl)-pyrrolidine-2-carbonyl]-amino}-propionic acid]",32%
